Each structure is given as a SMILES string.

We go through two compounds from patent US10668056B2, “Pharmaceutical composition comprising indole derivatives, process for preparation and use thereof” (VIVOLUX AB, priority 2015, dated 2020).

The subject of one assay is HCT116 (Colon carcinoma). The assay is described as follows: FMCA cytotoxicity, HCT116. Format: cell-based, human. The following applies: Homo sapiens, HCT-116, 72 h. The method, then: (§1) The inventors also set out to characterize activity of the compounds A, B and C in cell lines representing cancer of different origin. The specific assays used and the conclusions from the mechanistic evaluation have previously been described in detail (Zhang et al. 2014). Compounds A, B and C (See FIG. 4) were evaluated for cytotoxicity expressed as survival index (SI) in six human tumor cell lines using the cell based fluorometric micro culture cytotoxicity assay (FMCA) as previously described in detail (Lindhagen et al, 2008). The method is based on measurement of fluorescent fluorescein, generated from hydrolysis of FDA by viable cells with intact plasma membrane. The fluorescence is proportional to the number of intact viable cells.
(§2) The cell lines were cultivated in the respective cell medium recommended by the provider. The medium was supplemented with 10% heat-inactivated fetal bovine serum, 2 mmol/L L-glutamine, 100 μg/mL streptomycin and 100 U/mL penicillin (all from Sigma-Aldrich). The cell line was cultured at 37° C. in a humidified atmosphere containing 5% CO2.
(§3) FMCA analysis in brief, 2500 cells per well were seeded into 384-well microplates and incubated over night before treatment with compounds. Compounds were added using acoustic liquid transfer (Echo 550, LabCyte). The plates were incubated at 37° C. for 72 h, and then washed and FDA was added to the wells followed by 50 min of incubation at 37° C. The fluorescence, which is proportional to the number of living cells in each well, was measured at 485/520 nm in a Fluoroskan instrument (Labsystems, GMI, Ramsey, Minn.). Cell survival is presented as Survival Index (SI), defined as the fluorescence value in the compound-treated wells analysed as percentage of the value in the control wells, with blank values subtracted. Quality criteria included a signal/blank ratio >10 and a coefficient of variation (CV) in control and blank wells <30%. Graph Pad Prism (San Diego, Calif., USA). All experiments were performed twice, and each concentration was evaluated in quadruplicates in each experiment. […]

A further assay deals with RKO (Colon carcinoma). As to the kind of experiment: FMCA cytotoxicity, RKO. Format: cell-based, human. The following applies: Homo sapiens, 72 h. The method, then: as §1, §2, §3
Assay [1] concerns HeLa (Cervix Adenocarcinoma). As to the kind of experiment: FMCA cytotoxicity, HeLa. Format: cell-based, human. As to conditions: Homo sapiens, 72 h. The method, then: as §1, §2, §3
The subject of assay [2] is HepG2 (Hepatocellular Carcinoma). As to the kind of experiment: FMCA cytotoxicity, HepG2. Format: cell-based, human. The following applies: Homo sapiens, 72 h. The method, then: as §1, §2, §3
Assay [3] relates to CCRF-CEM (Acute lymphoblastic leukemia). The assay is described as follows: FMCA cytotoxicity, CCRF-CEM. Type of assay: cell-based, human. The following applies: Homo sapiens, 72 h. The method, then: as §1, §2, §3
The test system of assay [4] is THP-1 (Acute Monocytic Leukemia). The assay is described as follows: FMCA cytotoxicity, THP-1. Type of assay: cell-based, human. As to conditions: Homo sapiens, 72 h. The method, then:
as §1, §2, §3

In assay [5] the test system is six human tumor cell lines. As to the kind of experiment: FMCA cytotoxicity, six human tumor cell lines (overall). Type of assay: cell-based. The following applies: Table 6 and FIG. 4. The method, then:
as §1, §2, §3

As a reminder, the IC50 is the concentration that inhibits the measured activity by half. Lower therefore signals inhibition by little substance. Take `CC/C(=N\Nc1nnc2c(n1)[nH]c1c(C)cccc12)c1ccccn1` [Compound B, 2-[(1E)-1-(2-{6-methyl-5H-[1,2,4]triazino[5,6-b]indole-3-yl}hydrazin-1-ylidene)propyl]pyridine]: the IC50 in the assay on HCT116 (Colon carcinoma) is roughly 1000 nM; with RKO (Colon carcinoma), less than 250 nM; in assay [1], roughly 20000 nM; in assay [2], less than 250 nM; in assay [3] it was less than 250 nM; in assay [4], less than 250 nM. For the same compound, the “activity on cancer cell lines” value in assay [5] is “strong activity”.

For the compound `Cc1cccc2c1[nH]c1nc(NN=C(CC(C)(C)C)c3ccccn3)nnc12` [Compound C, 2-(3,3-dimethyl-N-{6-methyl-5H-[1,2,4]triazino[5,6-b]indole-3-yl}butanehydrazonoyl)pyridine], the IC50 is roughly 1000 nM in the assay with HCT116 (Colon carcinoma); less than 250 nM in the assay on RKO (Colon carcinoma); roughly 10000 nM in assay [1]; less than 250 nM in assay [2]; less than 250 nM in assay [3]; less than 250 nM in assay [4]. Moreover, the “activity on cancer cell lines” value in assay [5] is given as “strong activity”.
